Assay [1] concerns the target T1, Sigma non-opioid intracellular receptor 1 (Homo sapiens, UniProt Q99720). Nature of the assay: Displacement of [125I]N-IAC44 from sigma 1 receptor (unknown origin).
In assay [2] the target is T2, Sigma non-opioid intracellular receptor 1 (Rattus norvegicus, UniProt Q9R0C9). Nature of the assay: Displacement of [3H]-(+)-pentazocine from sigma 1 receptor in rat liver homogenates. It counts as tissue-based.
The target of assay [3] is T1, Sigma non-opioid intracellular receptor 1. Briefly: Displacement of [125I]N-IACoc from sigma 1 receptor (unknown origin). For orientation: Displacement assays read how much labelled ligand stays bound in the presence of the test substance.
For assay [4], the target named is T2, Sigma non-opioid intracellular receptor 1. Nature of the assay: Displacement of [125I]IACoc from sigma 1 receptor in rat liver microsomes.

The structures appear in SMILES notation.

T1 sequence (Q99720 whole entry): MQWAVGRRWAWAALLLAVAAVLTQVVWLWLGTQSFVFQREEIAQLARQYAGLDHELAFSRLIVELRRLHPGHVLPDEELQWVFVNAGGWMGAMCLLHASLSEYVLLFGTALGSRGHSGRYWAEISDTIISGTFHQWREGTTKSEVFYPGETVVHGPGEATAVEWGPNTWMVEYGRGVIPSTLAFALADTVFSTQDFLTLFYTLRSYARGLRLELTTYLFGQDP
T2 sequence (Q9R0C9 whole entry): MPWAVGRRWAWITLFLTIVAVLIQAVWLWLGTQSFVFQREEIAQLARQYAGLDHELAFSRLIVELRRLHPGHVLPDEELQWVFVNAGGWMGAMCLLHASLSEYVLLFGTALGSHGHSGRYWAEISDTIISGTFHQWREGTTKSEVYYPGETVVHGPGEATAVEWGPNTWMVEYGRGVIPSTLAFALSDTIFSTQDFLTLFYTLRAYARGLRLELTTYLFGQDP

As for `CCCN(CCCc1ccccc1)CCc1ccc(N=[N+]=[N-])c([125I])c1`, the Kd – broadly, the equilibrium constant for the complex coming apart – in assay [1] is 7.2 nM.

Regarding `CN(C)CCc1c[nH]c2ccccc12` [N,N-DIMETHYLTRYPTAMINE], the inhibitory constant (Ki) (as a rule, the dissociation constant of the complex between target and ligand, obtained from inhibition or displacement) in assay [2] amounted to 15400 nM.

Compound `COC(=O)[C@H]1[C@@H](OC(=O)c2ccccc2)C[C@@H]2CC[C@H]1N2CCc1ccc(N=[N+]=[N-])c([125I])c1` registered a Kd in assay [3] of 11 nM.

Turning to `COC(=O)[C@H]1[C@@H](OC(=O)c2ccc(N=[N+]=[N-])c([125I])c2)C[C@@H]2CC[C@H]1N2C`, the affinity in assay [4] corresponds to a Ki of 0.126 nM.

These data come from ChEMBL document CHEMBL3102847, “Structure of the σ1 receptor and its ligand binding site” (J Med Chem, 2013).
